Patent EP3324923B1, “COMPOSITIONS AND METHODS USING PALYTHINE” (King's College London, priority 2015, dated 2017)

Key:
Absorbance profile = assay type: physicochemical; conditions: Example 14
Method: palythine was extracted from the red algae Palmaria decipiens using a methanol extraction (Confirmed by HPLC & LC-MS). The absorbance profile was determined and then the extract was exposed to increasing doses of solar simulated radiation (SSR) from a solar simulator (conforming to COLIPA standards). The absorbance profile was measured to determine photostability. Compositions according to the invention (in this example solutions of palythine) were prepared at different palythine concentrations (0.3% to 10%), as well as controls comprising 0% palythine, and HaCat keratinocytes were irradiated with SSR or UVA radiation through the solutions, which were placed on top of the cells.
Palythine was exposed to increasing doses of solar simulated radiation and absorbance measured. The absorbance spectrum of the palythine was measured between 280-400 nm using a Spectra Max 384 Plus (Molecular Devices; California, USA) spectrophotometer. Referring to figure 18, we show the photostability of palythine after exposure to increasing doses of solar simulated radiation. Palythine (0.0001% w/v palythine extracted from red algae Chondrus yendoi in PBS) was exposed to increasing doses of solar simulated radiation and the absorbance was measured to determine photostability.

HaCaT keratinocytes = test: Cell viability by neutral red uptake assay after irradiation; assay type: cell-based, human; conditions: 20J/cm2 of SSR; 0.3 %, 4 % or 10 % (w/v) palythine; 24 hrs later; n=3; p=<0.0001
Method: All assays were performed on HaCat cells grown as a 70-80 % confluent monolayer in multiwell plates. They were washed three times in PBS and covered with palythine dissolved in PBS at differing concentrations (0, 0.1, 0.3 %, 4 % and 10 % w/v). The cells were then irradiated with either SSR or UVA radiation (5-20 J/cm^2 or 20 J/cm^2 respectively). After irradiation the palythine solution was removed and the cells washed a further three times and replaced in media or processed immediately depending on the experimental design.
Cell viability was measured 24 hours post irradiation using the neutral red uptake assay. Neutral red solution (4µgml^-1 in growth medium) (Sigma, UK) was added to the cells and they were incubated at 37 °C, 5 % CO2 for 2 hrs. Cells were washed three times in PBS to remove excess neutral red solution and then the destain solution (50 % v/v ethanol, 49 % v/v ddH2O, 1 % v/v glacial acetic acid) was added. Optical density was measured at 540 nm.
HaCaT keratinocytes were untreated, exposed to 20J/cm2 of SSR with PBS alone, 0.3 % (w/v), 4 % (w/v) or 10 % (w/v) of palythine or 10 % (w/v) palythine without exposure to UVR. Cell viability was measured 24 hrs later by the neutral red assay. Columns represent the mean ± SD (n=3).

HaCaT cells [1] = test: UVR induced gene expression by qPCR (TaqMan, ΔΔCT); assay type: cell-based, human
Method: The gene expression analysis was performed on HaCat cells exposed as previously described. Following irradiation growth media was replaced RNA extraction was carried out 12 hours later. RNA extraction was carried out using the mirVana miRNA Isolation kit (Life Technologies, Paisley, UK) according to the manufacturers protocol for total RNA extraction. RNA quality was tested using RNA 6000 Nano Kit according to the manufacturers instruction.
Total RNA was then converted to cDNA using the High Capacity cDNA Reverse Transcription Kit (Applied Biosystems, Paisley, UK) according to manufacturers instructions. qPCR was performed using TaqMan Gene Expression Assays (Applied Biosystems) according to the manufacturers protocol with the following TaqMan FAM labelled DNA probes IL-20, IL-8, IL-6, TFRC, HMOX-1, MMP-3, MMP-12. VIC labelled GAPDH was used as the housekeeping gene. For each gene the fold change was measured using the ΔΔCT method.
Cells irradiated with 5J/cm^2 SSR with 0%, 0.3%, 4% and 10% palythine. RNA was extracted, cDNA synthesised, and gene expression analysed by qCR. […] The mean fold change ± SD was analysed with n≥3. The difference compared to 0% irradiated sample was analysed using ANOVA. Significance is expressed by *.
Cells irradiated with 5J/cm^2 SSR with 0%, 0.3% & 4% palythine or Helionori. RNA was extracted, cDNA synthesised, and gene expression analysed by qPCR. Data presented in figure 13 show the protection offered by palythine according to the invention compared with protection offered by prior art composition Helionori, as assessed by UVR induced gene expression.
DNA damage was then measured using the comet assay and IHC-IF looking at the specific DNA lesions of cyclobutane pyrimidine dimers (CPD) and 8-oxoGua. A percentage reduction in general and specific DNA damage was then determined by comparing cells irradiated with and without sunscreen compositions. Antioxidant ability was detected using H2DCFDA, which fluoresces when reacting with ROS with the addition of palythine post exposure. SSR induced gene expression covering a range of different markers (inflammation, photoageing, oxidative damage) was assessed using qPCR. The ability of palythine to reduce this gene expression was then assessed.

HaCaT cells [2] = test: Reactive oxygen species detection by FACS analysis (carboxy-H2DCFDA), Example 8; assay type: cell-based, human; conditions: for Median corrected Average: FACS Analysis - Reactive Oxygen Species
Method: Intracellular ROS generation was measured using the detection agent 5-(and-6)-carboxy-2',7'- dichlorodihydrofluorescein diacetate (carboxy-H2DCFDA). […] More specifically, total intracellular ROS generation was studied using 5-(and-6)-carboxy-2',7'-dichlorodihydrofluorescein diacetate (carboxy-H2DCFDA).
Powdered sunscreens were dissolved in PBS (Sigma-Aldrich, UK) at a concentration in which they can dissolve fully (0-0.3%). They were then applied (200ul/well) to wells of a 24 well plate containing a washed monolayer of cells. Cells were then irradiated and the sunscreen removed and washed post treatment.
Irradiation was carried out on cells in monolayers at a distance of 3 cm (Solar Simulator) in cold PBS or PBS + sunscreen. The plate was always placed on a cooling platform at 4°C to avoid overheating of the cells. Unirradiated samples were maintained in PBS for the same time and temperature as irradiated samples.
Detection of reactive oxygen species was performed by FACS analysis using 5-(and 6-)-carboxy-2,',7'-dichlorodihydrofluorescein diacetate (Carboy-H2-DCFDA) (Invitrogen, Paisley, UK). Carboy-H2-DCFDA is a non-fluorescent dye that is activated into a fluorescent dye by ROS cleaving acetate groups from the molecule.
Cells were grown in a 12 well plate washed twice in PBS and irradiated +/- sunscreens. Control cells were unirradiated and positive controls were treated with 0.03% hydrogen peroxide for 5 minutes. Cells were washed again twice in PBS and then 1ML of Carboy-H2-DCFDA diluted in PBS to a concentration of 5uM was added to each well and were incubated for 2 minutes in a cell culture incubator in the dark (95% air, 5% CO2, 37°C, humidified). Each well was then washed twice with PBS to remove any excess dye.
Cells were then trypsinised, centrifuged at 400g for 4 minutes at 4°C and resuspended in 0.5ml of PBS + 0.1%w/v BSA and transferred to FACS tubes. Samples were then analysed with a Becton Dickson CANTO 3. The viable proportion of the cell population was quantified by the addition of 2.5ug/ml of propidium iodide immediately before the analysis.

[3] = Figure 8, RNA extraction 12 hours after irradiation, gene not responsive to UVR

Q: Which “absorbing in the UVB and UVA ranges” value (Absorbance profile) does the source give for `COC1=C(NCC(=O)O)CC(O)(CO)CC1=N` (centres unmarked) [palythine] here?
A: 290-350 nm

Q: What about the “protection against UVR induced cell death (cell viability)” value (HaCaT keratinocytes) of the same molecule?
A: significant protection

Q: What about the “protection, UVR induced gene expression (decrease compared to the irradiated control)” value (HaCaT cells [1]; 0.3% palythine, 5J/cm^2 SSR, figure 13) of the same molecule?
A: significant protection

Q: And the HMOX-1 gene expression (HaCaT cells [1]; 0.3 % palythine, Figure 8, compared to the control)?
A: significantly reduced

Q: What about the “MMP-12 gene expression compared to the control” value (HaCaT cells [1]; [3]) of the same molecule?
A: no effect

Q: What about the “TFRC gene expression compared to the control” value (HaCaT cells [1]; [3]) of the same molecule?
A: no effect

Q: What about the “expression of the genes compared to the irradiated control (containing no sunscreen)” value (HaCaT cells [1]; IL-20, IL-6, IL-8, MMP-3, HMOX-1, 5J/cm^2 SSR, 0.3% & 4%) of the same molecule?
A: significant reduction

Q: What about the “SSR induced differential gene expression for all markers investigated” value (HaCaT cells [1]; palythine at 0.3% or greater, all concentrations, p=<0.05) of the same molecule?
A: significantly reduced

Q: And the “Median corrected Average” value (HaCaT cells [2]; 0.1% palythine)?
A: 36.35

Q: What about the “Median corrected Average” value (HaCaT cells [2]; 0.3% palythine) of the same molecule?
A: 33.9

Q: What about the “total intracellular ROS generated after exposure to UVA and UVB” value (HaCaT cells [2]; carboxy-H2DCFDA) of the same molecule?
A: significantly reduce
